Five molecules from publication PMC3702004, “Comparison of Intake and Systemic Relative Effect Potencies of Dioxin-like Compounds in Female Mice after a Single Oral Dose” (Environmental Health Perspectives, 2013) can be followed below.

The first data set has as its system Cyp1a1 mRNA in liver. As to the kind of experiment: Cyp1a1 gene expression in liver (real-time PCR). In kind it is in vivo, female C57BL/6 mice. To be noted: dose metric Adm dose; 3 days after single oral dose. As to the method: Animals. Eight-week-old female C57BL/6 mice (Harlan laboratories, Venray, the Netherlands) were randomly assigned to treatment groups (six animals per group) and allowed to acclimate for 1.5 weeks. The animals were housed in groups in standard cages and conditions (23 ± 2°C, 50–60% relative humidity, 12-hr dark/light cycle) with free access to food and water. Mice received a single dose of test compound by oral gavage at a dosing volume of 10 mL/kg body weight (BW). Mice treated with corn oil vehicle (10 mL/kg BW) served as controls. For each congener, five different doses were administered, ranging from 0.5–100 μg/kg BW (TCDD) to 5,000–500,000 µg/kg BW (PCB-153). Detailed information on doses is provided in Supplemental Material, Table S1 (http://dx.doi.org/10.1289/ehp.1206336). On day 3 after dosing, animals were euthanized by CO2/O2 asphyxiation, and blood was immediately collected from the abdominal aorta. The liver, thymus, spleen, and adipose tissue were removed, weighed (liver, thymus, and spleen), snap frozen, and stored at –80°C. All animal treatments were performed with permission of the Animal Ethical Committee (DEC Utrecht) and performed according to the [Law on Animal Experiments (1977)]. Animals were treated humanely and with regard for alleviation of suffering.
RNA isolation and quantitative real-time polymerase chain reaction (PCR). Total RNA was isolated from liver and PBLs using a QIAGEN RNeasy kit (QIAGEN). Purity and concentration of the isolated RNA was determined by measuring the absorbance ratio at 260/280 nm and 230/260 nm with a Nanodrop 2000 spectrophotometer (Thermo Scientific, Asheville, NC, USA). RNA was reverse transcribed to complementary DNA (cDNA) using the iScript cDNA synthesis Kit (Bio-Rad, Veenendaal, the Netherlands). Quantitative real-time PCR analyses were performed using the iQ Real-Time PCR Detection System with SYBR green (Bio-Rad). Amplification reactions were set up with […] containing 12.5 μL iQ SYBR Green Supermix (Bio-rad), 0.5 μL distilled H2O, 1 μL (10 μM) forward primer, 1 μL (10 μM) reverse primer, and 10 μL first strand cDNA (10X diluted). Primer sequences were as follows: Cyp1a1: forward-5´-GGTTAACCATGACCGGGAACT-3´ and reverse-5´-TGCCCAAACCAAAGAGAGTGA-3´ ([Schulz et al. 2012]); Cyp1a2: forward-5´-ACATTCCCAAGGAGCGCTGTATCT-3´ and reverse-5´-GTCGATGGCCGAGTTGTTATTGGT-3´ ([Flaveny et al. 2010]); Cyp1b1: forward-5´-GTGGCTGCTCATCCTCTTTACC-3´ and reverse-5´-CCCACAACCTGGTCCAACTC-3´ ([Berge et al. 2004]); β-actin: forward-5´-ATGCTCCCCGGGCTGTAT-3´ and reverse-5´-CATAGGAGTCCTTCTGACCCATTC-3´ ([Schulz et al. 2012]). All primers were run through the National Center for Biotechnology Information Primer-BLAST database (http://www.ncbi.nlm.nih.gov/tools/primer-blast/) to confirm specificity and validate for optimal annealing temperature (60°C for all primers) and efficiency. […] The following program was used for denaturation and amplification of cDNA: 3 min at 95°C, followed by 40 cycles of 15 sec at 95°C and 45 sec at 60°C. Gene expression for each sample was expressed as threshold cycle (Ct), normalized to the reference gene β-actin (ΔCt). We calculated fold induction relative to the control group.
Data analysis. We obtained concentration–response curves using a sigmoidal dose–response nonlinear regression curve fit with variable slope (GraphPad Prism 6.01; GraphPad Software Inc., San Diego, CA, USA):
In this Hill equation, y is the dependent variable (EROD activity or fold induction of mRNA levels), x the independent variable (administered or systemic dose), E0 is the estimated background response level, Emax is the maximum response, b is the estimated median effective concentration (EC50), and n is the shaping parameter of the Hill curve.
Using the congener-specific BMR20TCDD concentration, REPs were calculated relatively to TCDD: […]
On the technique in general: Real-time PCR tracks product formation cycle by cycle.
In the case of `Clc1ccc(-c2cc(Cl)c(Cl)cc2Cl)cc1Cl` [PCB-118, 2,3´,4,4´,5-pentachlorobiphenyl], the “BMR20TCDD Liver Cyp1a1 mRNA” value is 139,631 µg/kg BW.
As to `Clc1ccc(-c2cc(Cl)c(Cl)c(Cl)c2)cc1Cl` [PCB-126, 3,3´,4,4´,5-pentachlorobiphenyl], the “BMR20TCDD Liver Cyp1a1 mRNA” value is 558 µg/kg BW.
The same measure, in the same setting: the figure for `Clc1ccc(-c2cc(Cl)c(Cl)c(Cl)c2Cl)cc1Cl` [PCB-156, 2,3,3´,4,4´,5-hexachlorobiphenyl] is 44,305 µg/kg BW; for `Clc1cc2c(cc1Cl)Oc1c(cc(Cl)c(Cl)c1Cl)O2` [PeCDD, 1,2,3,7,8-pentachlorodibenzodioxin] it is 1.25 µg/kg BW; for `Clc1cc2c(cc1Cl)Oc1cc(Cl)c(Cl)cc1O2` [TCDD, 2,3,7,8-tetrachlorodibenzodioxin, reference compound] it is 0.64 µg/kg BW.

The same data set, now with this note: dose metric Syst adipose; 3 days after single oral dose.
As for `Clc1ccc(-c2cc(Cl)c(Cl)c(Cl)c2)cc1Cl` [PCB-126, 3,3´,4,4´,5-pentachlorobiphenyl], the “BMR20TCDD Liver Cyp1a1 mRNA” value stood at 315 ng/g lipid.
The same measure, in the same setting: the figure for `Clc1ccc(-c2cc(Cl)c(Cl)c(Cl)c2Cl)cc1Cl` [PCB-156, 2,3,3´,4,4´,5-hexachlorobiphenyl] is 180,515 ng/g lipid; for `Clc1cc2c(cc1Cl)Oc1c(cc(Cl)c(Cl)c1Cl)O2` [PeCDD, 1,2,3,7,8-pentachlorodibenzodioxin] it is 2.36 ng/g lipid; for `Clc1cc2c(cc1Cl)Oc1cc(Cl)c(Cl)cc1O2` [TCDD, 2,3,7,8-tetrachlorodibenzodioxin, reference compound] it is 2.50 ng/g lipid.

Still in this data set, the particulars now being: dose metric Syst plasma; 3 days after single oral dose.
As for `Clc1ccc(-c2cc(Cl)c(Cl)cc2Cl)cc1Cl` [PCB-118, 2,3´,4,4´,5-pentachlorobiphenyl], the “BMR20TCDD Liver Cyp1a1 mRNA” value is 803,766 ng/g lipid.
For the molecule `Clc1ccc(-c2cc(Cl)c(Cl)c(Cl)c2Cl)cc1Cl` [PCB-156, 2,3,3´,4,4´,5-hexachlorobiphenyl], the “BMR20TCDD Liver Cyp1a1 mRNA” value is 303,586 ng/g lipid.
On the same count and under the same terms, for `Clc1cc2c(cc1Cl)Oc1c(cc(Cl)c(Cl)c1Cl)O2` [PeCDD, 1,2,3,7,8-pentachlorodibenzodioxin] the value was 3.94 ng/g lipid; for `Clc1cc2c(cc1Cl)Oc1cc(Cl)c(Cl)cc1O2` [TCDD, 2,3,7,8-tetrachlorodibenzodioxin, reference compound], 2.66 ng/g lipid.

Still in this data set, the particulars now being: relative to TCDD; dose metric Adm dose (µg/kg BW).
As to `Clc1ccc(-c2cc(Cl)c(Cl)cc2Cl)cc1Cl` [PCB-118, 2,3´,4,4´,5-pentachlorobiphenyl], the “REP Liver Cyp1a1 mRNA” value is 0.000005.
Same read-out and setting: for `Clc1ccc(-c2cc(Cl)c(Cl)c(Cl)c2)cc1Cl` [PCB-126, 3,3´,4,4´,5-pentachlorobiphenyl] the value was 0.001.
On the same count and under the same terms, the figure for `Clc1ccc(-c2cc(Cl)c(Cl)c(Cl)c2Cl)cc1Cl` [PCB-156, 2,3,3´,4,4´,5-hexachlorobiphenyl] is 0.00001.
On the same count and under the same terms, the figure for `Clc1cc2c(cc1Cl)Oc1c(cc(Cl)c(Cl)c1Cl)O2` [PeCDD, 1,2,3,7,8-pentachlorodibenzodioxin] is 0.5; for `Clc1cc2c(cc1Cl)Oc1cc(Cl)c(Cl)cc1O2` [TCDD, 2,3,7,8-tetrachlorodibenzodioxin, reference compound] it is 1.

The same data set, now with this note: relative to TCDD; dose metric Syst adipose (ng/g lipid).
With `Clc1ccc(-c2cc(Cl)c(Cl)c(Cl)c2)cc1Cl` [PCB-126, 3,3´,4,4´,5-pentachlorobiphenyl], the “REP Liver Cyp1a1 mRNA” value is 0.008.
On the same count and under the same terms, the figure for `Clc1ccc(-c2cc(Cl)c(Cl)c(Cl)c2Cl)cc1Cl` [PCB-156, 2,3,3´,4,4´,5-hexachlorobiphenyl] is 0.00001; for `Clc1cc2c(cc1Cl)Oc1c(cc(Cl)c(Cl)c1Cl)O2` [PeCDD, 1,2,3,7,8-pentachlorodibenzodioxin] it is 1; for `Clc1cc2c(cc1Cl)Oc1cc(Cl)c(Cl)cc1O2` [TCDD, 2,3,7,8-tetrachlorodibenzodioxin, reference compound] it is 1.

Staying with this data set, now noted: relative to TCDD; dose metric Syst liver (ng/g lipid).
`Clc1ccc(-c2cc(Cl)c(Cl)cc2Cl)cc1Cl` [PCB-118, 2,3´,4,4´,5-pentachlorobiphenyl]: the “REP Liver Cyp1a1 mRNA” value came out at 0.00005.
Still for that read-out and setting: the figure for `Clc1ccc(-c2cc(Cl)c(Cl)c(Cl)c2)cc1Cl` [PCB-126, 3,3´,4,4´,5-pentachlorobiphenyl] is 0.001; for `Clc1ccc(-c2cc(Cl)c(Cl)c(Cl)c2Cl)cc1Cl` [PCB-156, 2,3,3´,4,4´,5-hexachlorobiphenyl] it is 0.0001.
`Clc1cc2c(cc1Cl)Oc1c(cc(Cl)c(Cl)c1Cl)O2` [PeCDD, 1,2,3,7,8-pentachlorodibenzodioxin]: the “REP Liver Cyp1a1 mRNA” value worked out at 0.4.
Still for that read-out and setting: the figure for `Clc1cc2c(cc1Cl)Oc1cc(Cl)c(Cl)cc1O2` [TCDD, 2,3,7,8-tetrachlorodibenzodioxin, reference compound] is 1.

The data set is the same for the next values; noted with them: relative to TCDD; dose metric Syst liver (ng/g liver).
On to `Clc1ccc(-c2cc(Cl)c(Cl)cc2Cl)cc1Cl` [PCB-118, 2,3´,4,4´,5-pentachlorobiphenyl], for which the “REP Liver Cyp1a1 mRNA” value turned out to be 0.00007.
On to `Clc1ccc(-c2cc(Cl)c(Cl)c(Cl)c2)cc1Cl` [PCB-126, 3,3´,4,4´,5-pentachlorobiphenyl], for which the “REP Liver Cyp1a1 mRNA” value was found to be 0.001.
On the same count and under the same terms, the figure for `Clc1ccc(-c2cc(Cl)c(Cl)c(Cl)c2Cl)cc1Cl` [PCB-156, 2,3,3´,4,4´,5-hexachlorobiphenyl] is 0.0001; for `Clc1cc2c(cc1Cl)Oc1c(cc(Cl)c(Cl)c1Cl)O2` [PeCDD, 1,2,3,7,8-pentachlorodibenzodioxin] it is 0.4.
Same read-out and setting: for `Clc1cc2c(cc1Cl)Oc1cc(Cl)c(Cl)cc1O2` [TCDD, 2,3,7,8-tetrachlorodibenzodioxin, reference compound] the value was 1.

Still in this data set, the particulars now being: relative to TCDD; dose metric Syst plasma (ng/g lipid).
For the molecule `Clc1ccc(-c2cc(Cl)c(Cl)cc2Cl)cc1Cl` [PCB-118, 2,3´,4,4´,5-pentachlorobiphenyl], the “REP Liver Cyp1a1 mRNA” value was 0.000003.
As to `Clc1ccc(-c2cc(Cl)c(Cl)c(Cl)c2)cc1Cl` [PCB-126, 3,3´,4,4´,5-pentachlorobiphenyl], the “REP Liver Cyp1a1 mRNA” value is on record as 0.008.
The same measure, in the same setting: for `Clc1ccc(-c2cc(Cl)c(Cl)c(Cl)c2Cl)cc1Cl` [PCB-156, 2,3,3´,4,4´,5-hexachlorobiphenyl] the value was 0.000009; for `Clc1cc2c(cc1Cl)Oc1c(cc(Cl)c(Cl)c1Cl)O2` [PeCDD, 1,2,3,7,8-pentachlorodibenzodioxin], 0.7.
Still for that read-out and setting: for `Clc1cc2c(cc1Cl)Oc1cc(Cl)c(Cl)cc1O2` [TCDD, 2,3,7,8-tetrachlorodibenzodioxin, reference compound] the value was 1.
